Assay results as given in patent US12077555B2, “STAT degraders and uses thereof” (Kymera Therapeutics, Inc., priority 2019, dated 2024).

Target: T1, STAT3 (Homo sapiens, UniProt P40763)
Assay: Quantitation of STAT3 degradation in A549 cells by Western blot
Assay type: cell-based
Parameters: expressed in transfected cells; host or cells: A549
Settings: read-out: A549 DC50, 24 hours, tested up to 30 μM or 10 μM
Description: Degradation of total cellular STAT3 protein in A549 was quantitatively measured using SDS-PAGE and Western blot analysis. A549 cells (5×10^5 cells/well, 2 mL) were seeded into 6-well plates and were incubated in the incubator under 5% CO2 overnight to reach ˜80% confluency. The next day, the culture medium was changed with 1 ml fresh media. Then, 1 mL of media containing 2× compound solution was added into the well to make the final concentration of 30 μM, 10 μM, 3 μM, 1 μM, 0.3 μM and 0 μM (DMSO). The media was thoroughly mixed and incubated for 24 hours at 37° C. under 5% CO2. Then, the culture media was removed from the assay plates and the cells were washed with ice-cold PBS twice. To prepare cell lysates, 200 ul pre-chilled RIPA lysis buffer (Boston BioProducts BP-115D) with protease/phosphatase inhibitor (Roche 05892791001/Roche 04906837001) was added directly into the well to lyse the cells for 20 minutes on ice. The cell lysates were then transferred to centrifuge tubes. Insoluble part of lysates was removed by centrifuging the lysates at 13000 rpm for 20 minutes. The supernatant was then collected and mixed with 5× loading buffer (Beyotime Bio P0015) to make the final samples for SDS-PAGE analysis. The samples were heated at 100° C. for 10 minutes and cool to room temperature before centrifuging at 13000 rpm for 20 minutes. To analyze the samples by SDS-PAGE, 10 ul samples were loaded onto SDS-PAGE gel (Novex, WG1403BOX) and the SDS-PAGE gel was run for 20 minutes at 80 V, then at 120 V for 1.5 hours. The SDS-PAGE gel was then transferred to nitrocellulose membrane using the wet-transfer method at 250 mA for 1.5 hours. The membrane was then blocked with LI-COR blocking buffer (LI-COR, 927-50000) for 1 hour and was probed with primary antibody (mouse anti-STAT3 (124H6) (CST #91395) 1:2000 or mouse anti-beta-Actin (8H10D10) (CST #3700) 1:10000) at 4° C. overnight. The membrane was then washed three times with TBST buffer and probed with secondary antibody (anti-mouse IgG (LI-COR, 926-68070), 1:5000) for 1 hour at room temperature. The membrane was then scanned on a LI-COR Odyssey instrument and was quantified using Image Studio Version 5.2. Concentration at 50% degradation (DC50) was calculated by fitting dose dependent degradation data using a sigmoidal equation using GraphPad Prism Version 8.0.

T1 sequence (P40763 whole entry): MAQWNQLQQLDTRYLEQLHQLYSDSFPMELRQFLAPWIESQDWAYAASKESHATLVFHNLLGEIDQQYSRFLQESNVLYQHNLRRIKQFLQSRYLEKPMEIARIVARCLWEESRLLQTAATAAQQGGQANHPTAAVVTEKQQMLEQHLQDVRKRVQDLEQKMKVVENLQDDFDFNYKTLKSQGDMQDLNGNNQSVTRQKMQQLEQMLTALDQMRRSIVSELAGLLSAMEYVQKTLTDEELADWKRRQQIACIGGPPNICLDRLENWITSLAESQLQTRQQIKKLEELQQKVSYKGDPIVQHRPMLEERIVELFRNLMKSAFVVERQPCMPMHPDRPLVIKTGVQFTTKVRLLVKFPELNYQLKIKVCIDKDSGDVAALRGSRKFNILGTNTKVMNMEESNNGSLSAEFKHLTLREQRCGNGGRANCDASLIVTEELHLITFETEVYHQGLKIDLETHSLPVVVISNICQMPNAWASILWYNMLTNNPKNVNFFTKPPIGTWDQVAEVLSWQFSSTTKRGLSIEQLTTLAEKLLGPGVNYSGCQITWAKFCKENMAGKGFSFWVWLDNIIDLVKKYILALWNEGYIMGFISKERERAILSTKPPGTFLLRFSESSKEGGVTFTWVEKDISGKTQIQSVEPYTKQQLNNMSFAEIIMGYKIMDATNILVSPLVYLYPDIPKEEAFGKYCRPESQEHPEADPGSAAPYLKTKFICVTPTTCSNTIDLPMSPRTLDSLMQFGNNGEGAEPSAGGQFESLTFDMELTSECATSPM

Row | Compound | DC50
1 | C/C(=C\C(=O)N[C@H]1CCc2cccc3c2N(C1=O)[C@H](C(=O)N[C@@H](CCC(N)=O)[C@@H](C)OCc1ccc(CCCCC(=O)N[C@H](C(=O)N2C[C@@H](O)C[C@H]2C(=O)NCc2ccc(-c4scnc4C)cc2)C(C)(C)C)cc1)C3)c1ccc(C(F)(F)P(=O)(OCOC(=O)C(C)(C)C)OCOC(=O)C(C)(C)C)cc1 [Compound I-2] | > 30 µM
2 | C/C(=C\C(=O)N[C@H]1CCc2cccc3c2N(C1=O)[C@H](C(=O)N[C@@H](CCC(N)=O)[C@@H](C)OCc1ccc(CCCCc2cccc4c2n(C)c(=O)n4C2CCC(=O)NC2=O)cc1)C3)c1ccc(C(F)(F)P(=O)(OCOC(=O)C(C)(C)C)OCOC(=O)C(C)(C)C)cc1 (stereo partly shown) [Compound I-3] | > 30 µM
3 | C/C(=C\C(=O)N[C@H]1CCc2cccc3c2N(C1=O)[C@H](C(=O)N[C@@H](CCC(N)=O)[C@@H](C)OCc1ccc(CC(=O)N[C@H](C(=O)N2C[C@H](O)C[C@H]2C(=O)NCc2ccc(-c4scnc4C)cc2)C(C)(C)C)cc1)C3)c1ccc(C(F)(F)P(=O)(OCOC(=O)C(C)(C)C)OCOC(=O)C(C)(C)C)cc1 [Compound I-4] | > 30 µM
4 | C/C(=C\C(=O)N[C@H]1CCc2cccc3c2N(C1=O)[C@H](C(=O)N[C@@H](CCC(N)=O)[C@@H](C)OCc1ccc(CCCOCc2cccc4c2n(C)c(=O)n4C2CCC(=O)NC2=O)cc1)C3)c1ccc(C(F)(F)P(=O)(OCOC(=O)C(C)(C)C)OCOC(=O)C(C)(C)C)cc1 (stereo partly drawn) [Compound I-5, [([4-[(1E)-1-[[(2S,11S)-2-[[(3S,4R)-1-carbamoyl-4-[[4-(3-[[1-(2,6-dioxopiperidin-3-yl)-3-methyl-2-oxo-1,3-benzodiazol-4-yl]methoxy]propyl)phenyl]methoxy]pentan-3-yl]carbamoyl]-12-oxo-1-azatricyclo[6.4.1.0^[4,13]]trideca-4(13),5,7-trien-11-yl]carbamoyl]prop-1-en-2-yl]phenyl]difluoromethyl([(2,2-dimethylpropanoyl)oxy]methoxy)phosphoryl)oxy]methyl 2,2-dimethylpropanoate] | > 30 µM
5 | C/C(=C\C(=O)N[C@H]1CCc2cccc3c2N(C1=O)[C@H](C(=O)N[C@@H](CCC(N)=O)[C@@H](C)OCc1ccc(CCCCCc2cccc4c2n(C)c(=O)n4C2CCC(=O)NC2=O)cc1)C3)c1ccc(C(F)(F)P(=O)(OCOC(=O)C(C)(C)C)OCOC(=O)C(C)(C)C)cc1 (stereo partly drawn) [Compound I-6, [([4-[(1E)-1-[[(2S,11S)-2-[[(3S,4R)-1-carbamoyl-4-[(4-[5-[1-(2,6-dioxopiperidin-3-yl)-3-methyl-2-oxo-1,3-benzodiazol-4-yl]pentyl]phenyl)methoxy]pentan-3-yl]carbamoyl]-12-oxo-1-azatricyclo[6.4.1.0^[4,13]]trideca-4(13),5,7-trien-11-yl]carbamoyl]prop-1-en-2-yl]phenyl]difluoromethyl([(2,2-dimethylpropanoyl)oxy]methoxy)phosphoryl)oxy]methyl 2,2-dimethylpropanoate] | > 30 µM
6 | C/C(=C\C(=O)N[C@H]1CCc2cccc3c2N(C1=O)[C@H](C(=O)N[C@@H](CCC(N)=O)[C@@H](C)OCc1ccc(CCCC(=O)N[C@H](C(=O)N2C[C@H](O)C[C@H]2C(=O)NCc2ccc(-c4scnc4C)cc2)C(C)(C)C)cc1)C3)c1ccc(C(F)(F)P(=O)(OCOC(=O)C(C)(C)C)OCOC(=O)C(C)(C)C)cc1 [Compound I-7] | < 30 µM
7 | C/C(=C\C(=O)N[C@H]1CCc2cccc3c2N(C1=O)[C@H](C(=O)N[C@@H](CCC(N)=O)[C@@H](C)OCc1ccc(CCCCC(=O)N[C@H](C(=O)N2C[C@H](O)C[C@H]2C(=O)NCc2ccc(-c4scnc4C)cc2)C(C)(C)C)cc1)C3)c1ccc(C(F)(F)P(=O)(OCOC(=O)C(C)(C)C)OCOC(=O)C(C)(C)C)cc1 [Compound I-8, (2S,4R)-1-[(2S)-2-[5-[4-([[(2R,3S)-3-[[(2S,11S)-11-amino-12-oxo-1-azatricyclo[6.4.1.0^[4,13]]trideca-4(13),5,7-trien-2-l]formamido]-5-carbamoylpentan-2-yl]oxy]methyl)phenyl]pentanamido]-3,3-dimethylbutanoyl]-4-hydroxy-N-[[4-(4-methyl-1,3-thiazol-5-yl)phenyl]methyl]pyrrolidine-2-carboxamide] | < 30 µM

Target: T1, STAT3
Assay: STAT3 HiBiT degradation assay in transfected A549 cells
Assay type: cell-based
Parameters: expressed in transfected cells; host or cells: A549
Settings: A549, 24 h; read-out: STAT3 HiBiT A549 degradation 24 h: Average external-Abs DC50
Outline: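 Transfected A549 cells (~2000/well) plated 24 h, then treated 24 h at 37 °C, 5% CO2 with a 3-fold, 10-point compound dilution. HiBiT lytic luminescence read after 10 min at room temperature; remaining STAT3 normalized to negative and positive controls, four-parameter fit. DC50 binned A <0.01, B 0.01–0.1, C 0.1–1.0, D >1.0 µM.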

Row | Compound | DC50
8 | Cc1ncsc1-c1ccc(C2(NC(=O)[C@@H]3C[C@@H](O)CN3C(=O)[C@@H](NC(=O)CCCc3cccc(OC[C@H](CCC(N)=O)NC(=O)[C@@H]4Cc5cccc6c5N4C(=O)[C@@H](NC(=O)c4cc5cc(C(=O)P(=O)(O)O)ccc5[nH]4)CC6)c3Cl)C(C)(C)C)CC2)cc1 [Compound I-283] | 0.01 to 0.1 µM
9 | Cn1c(=O)n(C2CCC(=O)NC2=O)c2ccc(CCCCCCC(=O)N3CC[C@H]4CC[C@@H](C(=O)N[C@@H](CCC(N)=O)C(=O)NCc5ccc(S(C)(=O)=O)cc5)N4C(=O)[C@@H](NC(=O)c4cc5cc(C(=O)P(=O)(O)O)ccc5[nH]4)C3)cc21 (stereo partly drawn) [Compound I-288, 2-[[(5S,8S,10aR)-8-[[(1S)-3-carbamoyl-1-[[(4-methanesulfonylphenyl)methyl]carbamoyl]propyl]carbamoyl]-3-[7-[1-(2,6-dioxopiperidin-3-yl)-3-methyl-2-oxo-1,3-benzodiazol-5-yl]heptanoyl]-6-oxo-octahydropyrrolo[1,2-a][1,5]diazocin-5-yl]carbamoyl]-1H-indole-5-carbonylphosphonic acid] | 0.01 to 0.1 µM
10 | CC(=O)N1CC[C@H]2CC[C@@H](C(=O)N[C@@H](CCC(=O)O)COc3cc(F)cc(CCCC(=O)N[C@H](C(=O)N4C[C@H](O)C[C@H]4C(=O)N[C@@H](C)c4ccc(-c5scnc5C)cc4)C(C)(C)C)c3Cl)N2C(=O)[C@@H](NC(=O)c2cc3cc(C(=O)P(=O)(O)O)ccc3[nH]2)C1 [Compound I-289] | < 0.01 µM
11 | CC(=O)N1CC[C@H]2CC[C@@H](C(=O)N[C@@H](CCC(=O)O)COc3cc(C)cc(CCCC(=O)N[C@H](C(=O)N4C[C@H](O)C[C@H]4C(=O)N[C@@H](C)c4ccc(-c5scnc5C)cc4)C(C)(C)C)c3F)N2C(=O)[C@@H](NC(=O)c2cc3cc(C(=O)P(=O)(O)O)ccc3[nH]2)C1 [Compound I-290] | < 0.01 µM
12 | Cn1c(=O)n(C2CCC(=O)NC2=O)c2ccc(CC[C@H]3CC[C@@H](C(=O)N4CC[C@H]5CC[C@@H](C(=O)N[C@@H](CCC(N)=O)C(=O)NCc6ccc(S(C)(=O)=O)cc6)N5C(=O)[C@@H](NC(=O)c5cc6cc(C(=O)P(=O)(O)O)ccc6[nH]5)C4)CC3)cc21 (stereo partly drawn) [Compound I-294, (2-(((5S,8S,10aR)-8-(((S)-5-amino-1-((4-(methylsulfonyl)benzyl)amino)-1,5-dioxopentan-2-yl)carbamoyl)-3-((1r,4R)-4-(2-(1-(2,6-dioxopiperidin-3-yl)-3-methyl-2-oxo-2,3-dihydro-1H-benzo[d]imidazol-5-yl)ethyl)cyclohexane-1-carbonyl)-6-oxodecahydropyrrolo[1,2-a][1,5]diazocin-5-yl)carbamoyl)-1H-indole-5-carbonyl)phosphonic acid] | < 0.01 µM
13 | CC(C)c1ccc(CNC(=O)[C@H](CCC(N)=O)NC(=O)[C@@H]2CC[C@@H]3CCN(C(=O)[C@H]4CC[C@@H](CCc5ccc6c(c5)n(C)c(=O)n6C5CCC(=O)NC5=O)CC4)C[C@H](NC(=O)c4cc5cc(C(=O)P(=O)(O)O)ccc5[nH]4)C(=O)N32)cc1 (stereo partly drawn) [Compound I-295, (2-(((5S,8S,10aR)-8-(((S)-5-amino-1-((4-isopropylbenzyl)amino)-1,5-dioxopentan-2-yl)carbamoyl)-3-((1r,4R)-4-(2-(1-(2,6-dioxopiperidin-3-yl)-3-methyl-2-oxo-2,3-dihydro-1H-benzo[d]imidazol-5-yl)ethyl)cyclohexane-1-carbonyl)-6-oxodecahydropyrrolo[1,2-a][1,5]diazocin-5-yl)carbamoyl)-1H-indole-5-carbonyl)phosphonic acid] | < 0.01 µM
